Results published in ChEMBL document CHEMBL1201862, “PubChem BioAssay data set” (2004).
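How tested: cells in 96-well plates exposed to compound for 48 hours at five concentrations. GI50: concentration for 50% inhibition of growth.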 Calls of active or inactive are those of the source. No stated cut-off is given here; in the data, active = GI50 up to about 1.1 µM and inactive = higher.

Legend:
Assay in all cases: growth of human tumour cells (NCI), 48 h
ACHN = test system: ACHN
COLO 205 = test system: COLO 205
UACC-62 = test system: UACC-62
SK-OV-3 = test system: SK-OV-3
SF-295 = test system: SF-295
PC-3 = test system: PC-3
SR = test system: SR
U-251 = test system: U-251
SW-620 = test system: SW-620
A498 = test system: A498
SN12C = test system: SN12C
MDA-N = test system: MDA-N
HL-60 = test system: HL-60
IGROV-1 = test system: IGROV-1
NCI-H522 = test system: NCI-H522
RPMI-8226 = test system: RPMI-8226
LOX IMVI = test system: LOX IMVI
SNB-19 = test system: SNB-19
MCF7 = test system: MCF7
MDA-MB-231 = test system: MDA-MB-231

C=CC(C)(C)c1c(OC)oc2ccc(OC)c(C)c2c1=O
GI50 (ACHN): > 100 µM (inactive)
GI50 (COLO 205): > 100 µM (inactive)
GI50 (UACC-62): > 100 µM (inactive)
GI50 (SK-OV-3): > 100 µM (inactive)
GI50 (SF-295): > 100 µM (inactive)
GI50 (PC-3): 78.7 µM (inactive)
GI50 (SR): 84.1 µM (inactive)
GI50 (U-251): > 100 µM (inactive)
GI50 (SW-620): > 100 µM (inactive)
GI50 (A498): > 100 µM (inactive)
GI50 (SN12C): > 100 µM (inactive)
GI50 (MDA-N): > 100 µM (inactive)
GI50 (HL-60): 70.6 µM (inactive)
GI50 (IGROV-1): > 100 µM (inactive)
GI50 (NCI-H522): 98.2 µM (inactive)
GI50 (RPMI-8226): > 100 µM (inactive)
GI50 (LOX IMVI): > 100 µM (inactive)
GI50 (SNB-19): > 100 µM (inactive)
GI50 (MCF7): > 100 µM (inactive)
GI50 (MDA-MB-231): > 100 µM (inactive)

O=C(O)c1cnccc1-c1cc(=O)[nH]n1-c1ccccc1
GI50 (ACHN): 35.8 µM (inactive)
GI50 (COLO 205): 16 µM (inactive)
GI50 (UACC-62): 17.4 µM (inactive)
GI50 (SK-OV-3): > 100 µM (inactive)
GI50 (SF-295): 21.6 µM (inactive)
GI50 (PC-3): 16.3 µM (inactive)
GI50 (SR): 11.3 µM (inactive)
GI50 (U-251): > 100 µM (inactive)
GI50 (SW-620): > 23.2 µM (inactive)
GI50 (A498): > 100 µM (inactive)
GI50 (SN12C): > 87.7 µM (inactive)
GI50 (MDA-N): 41.8 µM (inactive)
GI50 (HL-60): 20.9 µM (inactive)
GI50 (IGROV-1): > 21.3 µM (inactive)
GI50 (NCI-H522): > 63.4 µM (inactive)
GI50 (RPMI-8226): 48 µM (inactive)
GI50 (LOX IMVI): 6.76 µM (inactive)
GI50 (SNB-19): > 100 µM (inactive)
GI50 (MCF7): 43.2 µM (inactive)
GI50 (MDA-MB-231): > 100 µM (inactive)

CN(C)CCNc1ccc(C(=O)NCCCN(C)CCCNC(=O)c2ccc(NCCN(C)C)c3c(=O)c4ccccc4[nH]c23)c2[nH]c3ccccc3c(=O)c12
GI50 (ACHN): 0.0402 µM (active)
GI50 (COLO 205): 0.0163 µM (active)
GI50 (UACC-62): 0.0349 µM (active)
GI50 (SK-OV-3): 0.109 µM (active)
GI50 (SF-295): 0.0328 µM (active)
GI50 (PC-3): 0.0783 µM (active)
GI50 (SR): < 0.01 µM (active)
GI50 (U-251): < 0.01 µM (active)
GI50 (SW-620): < 0.0113 µM (active)
GI50 (A498): 0.105 µM (active)
GI50 (SN12C): < 0.01 µM (active)
GI50 (MDA-N): 0.0346 µM (active)
GI50 (HL-60): 0.155 µM (active)
GI50 (IGROV-1): < 0.01 µM (active)
GI50 (NCI-H522): < 0.01 µM (active)
GI50 (RPMI-8226): < 0.01 µM (active)
GI50 (LOX IMVI): < 0.01 µM (active)
GI50 (SNB-19): < 0.0118 µM (active)
GI50 (MCF7): < 0.01 µM (active)
GI50 (MDA-MB-231): 0.024 µM (active)

CCC1([N+](=O)[O-])CN(N=O)C1
GI50 (ACHN): > 100 µM (inactive)
GI50 (COLO 205): > 100 µM (inactive)
GI50 (UACC-62): > 100 µM (inactive)
GI50 (SK-OV-3): > 100 µM (inactive)
GI50 (SF-295): > 100 µM (inactive)
GI50 (PC-3): > 100 µM (inactive)
GI50 (SR): > 100 µM (inactive)
GI50 (U-251): > 100 µM (inactive)
GI50 (SW-620): > 100 µM (inactive)
GI50 (A498): > 100 µM (inactive)
GI50 (SN12C): > 100 µM (inactive)
GI50 (MDA-N): > 100 µM (inactive)
GI50 (HL-60): > 100 µM (inactive)
GI50 (IGROV-1): > 100 µM (inactive)
GI50 (NCI-H522): > 100 µM (inactive)
GI50 (RPMI-8226): > 100 µM (inactive)
GI50 (LOX IMVI): > 100 µM (inactive)
GI50 (SNB-19): > 100 µM (inactive)
GI50 (MCF7): > 100 µM (inactive)
GI50 (MDA-MB-231): > 100 µM (inactive)

C[N+](C)(CCNC(=O)c1cccc2cc3ccccc3nc12)Cc1ccc([N+](=O)[O-])cc1
GI50 (ACHN): > 100 µM (inactive)
GI50 (COLO 205): > 100 µM (inactive)
GI50 (UACC-62): > 100 µM (inactive)
GI50 (SK-OV-3): > 100 µM (inactive)
GI50 (SF-295): > 100 µM (inactive)
GI50 (PC-3): > 100 µM (inactive)
GI50 (SR): > 100 µM (inactive)
GI50 (U-251): > 100 µM (inactive)
GI50 (SW-620): > 100 µM (inactive)
GI50 (A498): > 100 µM (inactive)
GI50 (SN12C): > 100 µM (inactive)
GI50 (MDA-N): > 100 µM (inactive)
GI50 (HL-60): > 100 µM (inactive)
GI50 (IGROV-1): > 100 µM (inactive)
GI50 (NCI-H522): > 100 µM (inactive)
GI50 (RPMI-8226): > 100 µM (inactive)
GI50 (LOX IMVI): > 100 µM (inactive)
GI50 (SNB-19): > 100 µM (inactive)
GI50 (MCF7): > 100 µM (inactive)
GI50 (MDA-MB-231): > 100 µM (inactive)

NC(=O)c1cccc(/N=c2\oc3ccc(Br)cc3cc2-c2nc3ccccc3[nH]2)c1
GI50 (ACHN): 17.3 µM (inactive)
GI50 (COLO 205): 14.6 µM (inactive)
GI50 (UACC-62): 14.4 µM (inactive)
GI50 (SK-OV-3): 16.4 µM (inactive)
GI50 (SF-295): 15.8 µM (inactive)
GI50 (PC-3): 14.3 µM (inactive)
GI50 (SR): 5.73 µM (inactive)
GI50 (U-251): 13.2 µM (inactive)
GI50 (SW-620): 15.3 µM (inactive)
GI50 (A498): 18.4 µM (inactive)
GI50 (SN12C): 17.4 µM (inactive)
GI50 (MDA-N): 17.7 µM (inactive)
GI50 (HL-60): 18.1 µM (inactive)
GI50 (IGROV-1): 17.9 µM (inactive)
GI50 (NCI-H522): 22.1 µM (inactive)
GI50 (RPMI-8226): 5.87 µM (inactive)
GI50 (LOX IMVI): 16.1 µM (inactive)
GI50 (SNB-19): 14.8 µM (inactive)
GI50 (MCF7): 12.9 µM (inactive)
GI50 (MDA-MB-231): 7.55 µM (inactive)
